The source of these data is ChEMBL document CHEMBL1134089, “Arylsulphonyl hydroxamic acids: potent and selective matrix metalloproteinase inhibitors” (Bioorg Med Chem Lett, 2001).

The target in one series is T1, Interstitial collagenase (Homo sapiens, UniProt P03956).
T1 sequence (P03956 whole entry): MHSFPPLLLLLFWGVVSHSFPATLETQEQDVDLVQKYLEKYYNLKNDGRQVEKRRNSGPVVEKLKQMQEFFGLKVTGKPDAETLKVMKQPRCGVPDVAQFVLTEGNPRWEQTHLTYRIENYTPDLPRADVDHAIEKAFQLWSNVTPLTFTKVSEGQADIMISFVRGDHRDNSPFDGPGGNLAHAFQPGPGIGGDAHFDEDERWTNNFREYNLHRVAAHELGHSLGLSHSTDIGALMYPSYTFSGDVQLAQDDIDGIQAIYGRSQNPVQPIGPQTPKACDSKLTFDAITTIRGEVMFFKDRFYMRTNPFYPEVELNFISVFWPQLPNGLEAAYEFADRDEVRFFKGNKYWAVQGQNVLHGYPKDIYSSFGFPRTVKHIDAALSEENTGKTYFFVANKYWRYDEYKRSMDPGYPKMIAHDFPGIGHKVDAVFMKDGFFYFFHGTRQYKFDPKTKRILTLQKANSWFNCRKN
Description: Inhibition of Matrix metalloprotease-1.

The next series addresses Neutrophil collagenase (Homo sapiens, UniProt P22894). The series can be described thus: Inhibition of Matrix metalloprotease-8.
For series [1], the target named is Matrix metalloproteinase-9 (Homo sapiens, UniProt P14780). The series can be described thus: Inhibition of Matrix metalloprotease-9.
For series [2], the target named is 72 kDa type IV collagenase (Homo sapiens, UniProt P08253). The series can be described thus: Inhibition of Matrix metalloprotease-2.
The target of another series is Stromelysin-1 (Homo sapiens, UniProt P08254). The series can be described thus: Inhibition of Matrix metalloprotease-3.
The next series relates to Mus musculus. The series can be described thus: Percent inhibition against B16-F10 mouse melanoma tested in vivo at 30 mg/kg. It is filed as functional.
The subject of series [3] is Rattus norvegicus. The series can be described thus: Percent inhibition against adjuvant arthritis in rats tested in vivo at 10 mg/kg. The format is functional.
Series [4] can be described thus: Inhibitory concentration required against shedding of IL6-R from stimulated PBMCs. It is filed as functional.
Series [5] in a line: (§1) Inhibitory concentration required against shedding of L-Selectin from stimulated PBMCs. It is filed as functional, Homo sapiens.
Series [6] in a line: Inhibitory concentration required against shedding of TNF RII from stimulated PBMCs. It is filed as functional.
The nature of series [7]: Inhibitory concentration required against shedding of TNF-alpha from stimulated PBMCs. The format is functional.
Series [8] in a line: Inhibitory concentration required against shedding of IL-1 RII from stimulated PBMCs. The format is functional.
Series [9] concerns Rattus norvegicus. The series can be described thus: Plasma level evaluated in the rat after oral dosing of 10 mg/kg. It is filed as ADME, organism-based. Also on record: dose 10 mg/kg, route oral. The conditions noted are these: in vivo.
The test system of series [10] is Rattus norvegicus. Description: Percent inhibition against adjuvant arthritis in rats tested in vivo at 3 mg/kg. The format is functional.
Series [11] can be described thus: as §1. The format is functional.

Chain of Neutrophil collagenase (P22894 whole entry): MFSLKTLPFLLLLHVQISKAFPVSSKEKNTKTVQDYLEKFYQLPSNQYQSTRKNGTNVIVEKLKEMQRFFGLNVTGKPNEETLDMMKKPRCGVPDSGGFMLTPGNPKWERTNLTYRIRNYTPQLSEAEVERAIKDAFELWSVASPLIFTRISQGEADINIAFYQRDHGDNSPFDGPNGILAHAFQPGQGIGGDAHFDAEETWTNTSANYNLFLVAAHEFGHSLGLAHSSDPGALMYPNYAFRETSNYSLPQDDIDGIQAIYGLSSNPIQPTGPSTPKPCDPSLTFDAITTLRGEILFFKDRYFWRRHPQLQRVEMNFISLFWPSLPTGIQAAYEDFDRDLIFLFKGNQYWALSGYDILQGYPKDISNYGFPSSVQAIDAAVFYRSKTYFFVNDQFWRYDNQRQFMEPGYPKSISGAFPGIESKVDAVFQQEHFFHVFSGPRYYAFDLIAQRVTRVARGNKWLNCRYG
Chain of Stromelysin-1 (P08254 whole entry): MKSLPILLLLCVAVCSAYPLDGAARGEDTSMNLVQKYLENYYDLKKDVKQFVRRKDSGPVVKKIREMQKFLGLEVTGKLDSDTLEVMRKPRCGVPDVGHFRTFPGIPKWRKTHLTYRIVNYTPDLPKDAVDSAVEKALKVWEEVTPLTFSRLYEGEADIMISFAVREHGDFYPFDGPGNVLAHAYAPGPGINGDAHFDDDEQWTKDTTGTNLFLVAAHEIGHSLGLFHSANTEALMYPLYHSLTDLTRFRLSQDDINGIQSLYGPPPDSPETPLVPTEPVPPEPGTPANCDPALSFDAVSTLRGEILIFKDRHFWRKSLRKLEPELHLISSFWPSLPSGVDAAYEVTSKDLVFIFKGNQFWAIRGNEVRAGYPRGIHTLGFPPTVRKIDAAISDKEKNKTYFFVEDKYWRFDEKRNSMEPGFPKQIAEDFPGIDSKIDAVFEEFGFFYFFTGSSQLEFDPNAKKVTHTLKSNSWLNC
Chain of Matrix metalloproteinase-9 (P14780 whole entry): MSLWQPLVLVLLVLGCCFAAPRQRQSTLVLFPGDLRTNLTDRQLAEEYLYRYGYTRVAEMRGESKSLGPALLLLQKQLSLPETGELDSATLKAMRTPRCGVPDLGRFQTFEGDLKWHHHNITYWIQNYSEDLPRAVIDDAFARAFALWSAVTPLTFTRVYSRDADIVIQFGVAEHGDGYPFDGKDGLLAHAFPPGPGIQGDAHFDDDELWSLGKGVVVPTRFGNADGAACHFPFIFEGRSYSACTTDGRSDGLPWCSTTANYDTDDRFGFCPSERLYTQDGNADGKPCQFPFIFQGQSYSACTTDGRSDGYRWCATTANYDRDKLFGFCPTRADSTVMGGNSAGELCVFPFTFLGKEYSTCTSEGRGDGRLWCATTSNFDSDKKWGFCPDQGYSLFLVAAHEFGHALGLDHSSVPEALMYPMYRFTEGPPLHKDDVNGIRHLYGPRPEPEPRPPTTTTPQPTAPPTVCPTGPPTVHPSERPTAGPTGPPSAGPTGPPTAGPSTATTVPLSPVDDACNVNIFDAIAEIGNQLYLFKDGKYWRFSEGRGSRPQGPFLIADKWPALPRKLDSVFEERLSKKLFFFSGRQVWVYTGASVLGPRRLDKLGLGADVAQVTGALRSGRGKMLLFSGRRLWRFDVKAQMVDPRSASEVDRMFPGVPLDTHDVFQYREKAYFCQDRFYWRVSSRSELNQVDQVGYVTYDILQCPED
Chain of 72 kDa type IV collagenase (P08253 whole entry): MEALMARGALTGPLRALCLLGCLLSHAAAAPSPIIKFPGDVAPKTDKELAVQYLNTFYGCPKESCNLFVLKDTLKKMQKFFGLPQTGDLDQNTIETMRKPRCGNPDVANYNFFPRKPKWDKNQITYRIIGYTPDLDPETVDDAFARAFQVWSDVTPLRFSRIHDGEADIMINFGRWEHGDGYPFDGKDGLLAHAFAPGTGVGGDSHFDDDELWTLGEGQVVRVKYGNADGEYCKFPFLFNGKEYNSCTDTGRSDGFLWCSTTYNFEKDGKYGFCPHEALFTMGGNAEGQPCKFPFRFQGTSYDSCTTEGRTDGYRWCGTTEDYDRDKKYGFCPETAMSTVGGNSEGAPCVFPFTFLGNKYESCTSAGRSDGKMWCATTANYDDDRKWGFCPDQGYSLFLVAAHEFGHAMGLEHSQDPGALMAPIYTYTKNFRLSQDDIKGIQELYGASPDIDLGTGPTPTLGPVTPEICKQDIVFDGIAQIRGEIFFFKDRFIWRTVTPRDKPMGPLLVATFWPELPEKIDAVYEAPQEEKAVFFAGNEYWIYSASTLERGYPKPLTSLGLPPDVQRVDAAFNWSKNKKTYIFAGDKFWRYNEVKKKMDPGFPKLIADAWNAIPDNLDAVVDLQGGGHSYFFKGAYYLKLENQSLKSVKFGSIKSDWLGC

Consider `O=C(c1ccc(S(=O)(=O)CC(CCCc2ccccc2)C(=O)NO)cc1)c1cc[n+]([O-])cc1` (centres undefined), for which the 50% inhibitory concentration (IC50) against Interstitial collagenase was 20000 nM; on Neutrophil collagenase it was 80 nM; in series [1], 150 nM; in [2] it was 50 nM; against Stromelysin-1, 350 nM.
As to `O=C(NO)C(CCCc1ccccc1)CS(=O)(=O)c1ccc(C(O)c2ccccc2)cc1` (centres undefined), the IC50 against Interstitial collagenase was determined as 25000 nM; against Neutrophil collagenase it was 3000 nM; in [1], 2500 nM; in series [2], 1700 nM; against Stromelysin-1, 2500 nM.
`O=C(c1ccccc1)c1ccc(S(=O)(=O)CC(CCCc2ccccc2)C(=O)NO)cc1` (centres undefined) registered an inhibition in vivo at 30 mg/kg in the series on Mus musculus of 40%. Moreover, the inhibition in vivo at 10 mg/kg with Rattus norvegicus [3] came to 40%. For the same compound, the IC50 in [4] (Homo sapiens) is more than 100000 nM; in series [5] it was more than 100000 nM; at Neutrophil collagenase, 15 nM; in series [6] (Homo sapiens), more than 100000 nM; in [7] (Homo sapiens), more than 100000 nM; against Stromelysin-1, 100 nM. The IC50 in series [8] (Homo sapiens) was more than 100000 nM.
As to `O=C(NO)C(CCCc1ccccc1)CS(=O)(=O)c1ccc(Cc2ccccc2)cc1` (centres undefined), the IC50 against Interstitial collagenase was more than 30000 nM; on Neutrophil collagenase, 300 nM; in series [1] it was 150 nM; in [2], 200 nM; at Stromelysin-1, more than 2000 nM.
Turning to `O=C(c1ccccc1)c1ccc(S(=O)(=O)CC(CCCc2ccccc2)C(=O)O)cc1` (centres undefined), the IC50 at Interstitial collagenase is 20000 nM; on Neutrophil collagenase, 300 nM; in series [1] it was 400 nM; in series [2], 800 nM; at Stromelysin-1, 1200 nM.
Take `Cl.O=C(c1ccncc1)c1ccc(S(=O)(=O)CC(CCCc2ccccc2)C(=O)NO)cc1` (centres undefined): testing at 30 mg/kg with Mus musculus gave an inhibition in vivo of 80%. Further, the IC50 in series [4] (Homo sapiens) is more than 100000 nM; against Interstitial collagenase, 10000 nM; in [5], more than 100000 nM; against Neutrophil collagenase it was 3 nM; in series [6] (Homo sapiens), more than 100000 nM; in [7] (Homo sapiens), more than 100000 nM. For the same compound, the 50% inhibitory concentration (IC50) came to 15 nM in [1], 3 nM in [2], 100 nM at Stromelysin-1 and 37000 nM in series [8] (Homo sapiens). In addition, in the series with Rattus norvegicus [9], the Plasma level came to 300 ng/mL. The inhibition in vivo at 3 mg/kg with Rattus norvegicus [10] was 50%.
As to `CNC(=O)[C@@H](NC(=O)C(CC(C)C)C(O)C(=O)NO)C(C)(C)C` (single isomer, unassigned), the inhibition in vivo at 30 mg/kg in the series on Mus musculus was 40%. The inhibition in vivo at 10 mg/kg with Rattus norvegicus [3] was 50%. In addition, the IC50 in series [4] is 10000 nM; in series [6] it was 1000 nM; in series [7], 2000 nM; in [11], 5000 nM; in series [8], 10000 nM.

What is called IC50 is the concentration at which inhibition is half-maximal. The inhibition in vivo is how much of the control response was suppressed.
